pIC50, pKd: −log10 of the molar value.
Key:
[1] = tested on: U937 human histiocytic leukemia cell line; experiment: Cellular assay: inhibition of TSQ induced necroptosis (CellTitre-Glo); conditions: Homo sapiens, U-937; U937 cells, TSQ cocktail, 48 hours, Table 38; read-out: Inhibition of TSQ-induced necroptosis (IC50 cell-based assay)
Summary of the method: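 U937 cells (20,000/well) pre-dosed with compound (10-point, 1:3 from 36 μM, 0.3% DMSO), then TSQ (hTNF-Fc 100 ng/ml, Smac mimetic 500 nM, Q-VD-OPh 10 μM) for 48 h at 37 °C. Viability by CellTiter-Glo luminescence, normalised to DMSO (100%) and DMSO+TSQ (0%); IC50 from 4-parameter fit.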

MLKL (full length) = MLKL (full length) (Homo sapiens (Human), UniProt Q8NB16); experiment: KINOMEscan binding assay, MLKL (full length); conditions: Table 36
Experimental: Kinase assays. For most assays, kinase-tagged T7 phage strains were grown in parallel in 24-well blocks in an E. coli host derived from the BL21 strain. E. coli were grown to log-phase and infected with T7 phage from a frozen stock (multiplicity of infection=0.4) and incubated with shaking at 32° C. until lysis (90-150 minutes).
The Hill Slope was set to −1.

U937 cells = experiment: Counter screen: cell viability without TSQ cocktail (off-target effect); design: species or system human; conditions: Homo sapiens, U-937, Table 38, read-out: Off-target effect (IC50 cell-based assay)
Experimental: Counter screen: In parallel, all compounds were tested for their ability to affect cell viability. The same U937 cells were treated with compound in DMSO without the TSQ cocktail. This counter screen enabled evaluation of off-target effects. In this case, cell viability was measured by CelltiterGlo.

endogenous MLKL in U937 = endogenous MLKL in U937 (Homo sapiens (Human), UniProt Q8NB16); experiment: Degradation assay: degradation of endogenous MLKL in human cells (Western blot); conditions: 24 h incubation, read-out: Degradation of endogenous MLKL in U937 (DC50 cell-based assay in μM)
MLKL = MLKL (Homo sapiens (Human), UniProt Q8NB16); experiment: Binding to MLKL (KD), in vitro; conditions: in vitro assays
Sequence of MLKL (Q8NB16 whole entry): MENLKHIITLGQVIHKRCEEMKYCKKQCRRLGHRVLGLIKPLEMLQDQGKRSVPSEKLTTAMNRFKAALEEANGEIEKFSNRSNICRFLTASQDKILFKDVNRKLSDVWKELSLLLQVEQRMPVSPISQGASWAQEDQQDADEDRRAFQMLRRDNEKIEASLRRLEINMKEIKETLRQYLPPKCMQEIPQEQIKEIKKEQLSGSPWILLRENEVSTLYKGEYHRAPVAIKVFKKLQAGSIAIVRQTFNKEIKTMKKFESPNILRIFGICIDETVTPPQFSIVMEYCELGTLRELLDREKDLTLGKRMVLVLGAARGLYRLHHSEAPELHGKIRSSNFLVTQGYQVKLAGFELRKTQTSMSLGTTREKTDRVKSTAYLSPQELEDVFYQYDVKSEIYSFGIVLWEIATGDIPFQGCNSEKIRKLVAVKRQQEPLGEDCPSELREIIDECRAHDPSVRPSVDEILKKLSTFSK

Sequence of endogenous MLKL in U937 (Q8NB16 whole entry): as above
Sequence of MLKL (full length) (Q8NB16 whole entry): as above

Row | pKd (MLKL (full length)) | DC50 (endogenous MLKL in U937) [µM] | pKd (MLKL) | SMILES | pIC50 [1] | pIC50 (U937 cells)
1 | 6.00 to 8.00 | < 1 | – | CCS(=O)(=O)Nc1ccc(-c2n[nH]c(Nc3ccc(C(=O)OCCCCCCC(=O)N[C@H](C(=O)N4C[C@H](O)C[C@H]4C(=O)NCc4ccc(-c5scnc5C)cc4)C(C)(C)C)cn3)c2C(N)=O)cc1O[C@@H](C)c1ccc(F)cc1 [Compound 1058, 6-{[(2S)-1-[(2S,4R)-4-hydroxy-2-({[4-(4-methyl-1,3-thiazol-5-yl)phenyl]methyl}carbamoyl)pyrrolidin-1-yl]-3,3-dimethyl-1-oxobutan-2-yl]carbamoyl}hexyl 6-[(4-carbamoyl-3-{4-ethanesulfonamido-3-[(1S)-1-(4-fluorophenyl)ethoxy]phenyl}-1H-pyrazol-5-yl)amino]pyridine-3-carboxylate] | > 6.00 | < 5.00
2 | – | – | ~5.70 | CCS(=O)(=O)Nc1ccc(-c2n[nH]c(Nc3ccc(C(=O)OCCCCC(=O)N[C@H](C(=O)N4C[C@H](O)C[C@H]4C(=O)NCc4ccc(-c5scnc5C)cc4)C(C)(C)C)cn3)c2C#N)cc1O[C@@H](C)c1ccc(F)cc1 [Compound 1061, 4-{[(2S)-1-[(2S,4R)-4-hydroxy-2-({[4-(4-methyl-1,3-thiazol-5-yl)phenyl]methyl}carbamoyl)pyrrolidin-1-yl]-3,3-dimethyl-1-oxobutan-2-yl]carbamoyl}butyl 6-[(4-cyano-3-{4-ethanesulfonamido-3-[(1S)-1-(4-fluorophenyl)ethoxy]phenyl}-1H-pyrazol-5-yl)amino]pyridine-3-carboxylate] | – | –

Source: US20250074891A1 (Anaxis Pharma Pty Ltd., priority 2021, published 2025)
